Results as given in ChEMBL document CHEMBL5120862, “Novel non-covalent LSD1 inhibitors endowed with anticancer effects in leukemia and solid tumor cellular models” (Eur J Med Chem, 2022).
Activity calls are given as the source filed them. No cut-off for these calls is given here.

Experiments:
LSD1/CoREST complex [1] = target: T1, LSD1/CoREST complex (Homo sapiens, UniProt O60341); assay: Inhibition of human LSD1/CoREST using histone H3 peptide as substrate by fluorescence polarization assay; assay type: protein-complex assay
LSD1/CoREST complex [2] = target: T1, LSD1/CoREST complex; assay: Binding affinity to human LSD1/CoREST assessed as dissociation constant by competitive fluorescence polarization assay; assay type: protein-complex assay
[3] = target: T2, Histone-lysine N-methyltransferase EHMT2 (Homo sapiens, UniProt Q96KQ7); assay: Inhibition of G9a (unknown origin) assessed as reduction in substrate methylation using histone H3 and SAM as substrate measured after 15 to 60 mins by microfluidic capillary electrophoresis analysis
T2 sequence (Q96KQ7 whole entry): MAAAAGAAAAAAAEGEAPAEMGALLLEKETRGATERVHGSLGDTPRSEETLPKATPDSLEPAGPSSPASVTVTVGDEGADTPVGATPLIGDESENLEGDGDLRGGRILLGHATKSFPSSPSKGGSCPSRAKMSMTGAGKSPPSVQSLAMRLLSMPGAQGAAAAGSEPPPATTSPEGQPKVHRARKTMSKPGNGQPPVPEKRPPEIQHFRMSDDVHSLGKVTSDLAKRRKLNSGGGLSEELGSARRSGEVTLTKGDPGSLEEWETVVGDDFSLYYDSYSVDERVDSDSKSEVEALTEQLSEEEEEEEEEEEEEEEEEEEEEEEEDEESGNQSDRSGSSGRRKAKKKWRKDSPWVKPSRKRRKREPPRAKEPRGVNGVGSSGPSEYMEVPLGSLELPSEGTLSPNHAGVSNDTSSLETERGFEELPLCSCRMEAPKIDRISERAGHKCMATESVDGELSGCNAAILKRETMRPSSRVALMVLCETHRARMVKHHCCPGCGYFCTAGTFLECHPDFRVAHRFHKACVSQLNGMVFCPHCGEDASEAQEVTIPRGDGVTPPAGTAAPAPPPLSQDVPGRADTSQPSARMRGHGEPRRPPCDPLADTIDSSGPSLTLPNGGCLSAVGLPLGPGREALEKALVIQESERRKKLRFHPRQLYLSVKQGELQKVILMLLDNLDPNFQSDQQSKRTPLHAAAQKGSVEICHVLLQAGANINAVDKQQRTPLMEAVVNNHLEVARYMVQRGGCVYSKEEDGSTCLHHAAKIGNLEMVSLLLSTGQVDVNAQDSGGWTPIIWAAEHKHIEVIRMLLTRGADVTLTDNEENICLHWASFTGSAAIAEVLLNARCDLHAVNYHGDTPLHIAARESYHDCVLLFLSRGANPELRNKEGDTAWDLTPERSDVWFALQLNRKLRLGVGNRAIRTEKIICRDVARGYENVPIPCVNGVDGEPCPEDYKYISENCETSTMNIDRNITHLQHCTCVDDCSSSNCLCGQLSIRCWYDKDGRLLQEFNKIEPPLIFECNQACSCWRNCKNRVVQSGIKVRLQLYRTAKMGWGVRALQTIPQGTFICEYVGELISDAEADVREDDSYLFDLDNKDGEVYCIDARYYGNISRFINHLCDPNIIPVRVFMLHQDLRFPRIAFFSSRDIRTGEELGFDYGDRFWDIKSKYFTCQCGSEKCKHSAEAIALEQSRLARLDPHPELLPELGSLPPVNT

THP-1 [4] = assay: Antiproliferative activity against human THP-1 cells assessed as inhibition of cell growth incubated for 72 hrs by CellTiter-Glo luminescent cell viability assay; assay type: functional, cell-based; conditions: THP-1, 72 h
THP-1 [5] = assay: Antiproliferative activity against human THP-1 cells assessed as inhibition of cell growth incubated for 24 hrs by CellTiter-Glo luminescent cell viability assay; assay type: functional, cell-based; conditions: THP-1, 24 h
THP-1 [6] = assay: Antiproliferative activity against human THP-1 cells assessed as inhibition of cell growth incubated for 144 hrs by CellTiter-Glo luminescent cell viability assay; assay type: functional, cell-based; conditions: THP-1, 144 h
[7] = target: Histone-lysine N-methyltransferase EZH2 (Homo sapiens) (UniProt Q15910); assay: Inhibition of EZH2 (unknown origin) using [3H]SAM and chicken core histone as substrates at 100 uM incubated for 1 hr relative to control
Sequence of Histone-lysine N-methyltransferase EZH2 (Homo sapiens) (Q15910 whole entry, looked up): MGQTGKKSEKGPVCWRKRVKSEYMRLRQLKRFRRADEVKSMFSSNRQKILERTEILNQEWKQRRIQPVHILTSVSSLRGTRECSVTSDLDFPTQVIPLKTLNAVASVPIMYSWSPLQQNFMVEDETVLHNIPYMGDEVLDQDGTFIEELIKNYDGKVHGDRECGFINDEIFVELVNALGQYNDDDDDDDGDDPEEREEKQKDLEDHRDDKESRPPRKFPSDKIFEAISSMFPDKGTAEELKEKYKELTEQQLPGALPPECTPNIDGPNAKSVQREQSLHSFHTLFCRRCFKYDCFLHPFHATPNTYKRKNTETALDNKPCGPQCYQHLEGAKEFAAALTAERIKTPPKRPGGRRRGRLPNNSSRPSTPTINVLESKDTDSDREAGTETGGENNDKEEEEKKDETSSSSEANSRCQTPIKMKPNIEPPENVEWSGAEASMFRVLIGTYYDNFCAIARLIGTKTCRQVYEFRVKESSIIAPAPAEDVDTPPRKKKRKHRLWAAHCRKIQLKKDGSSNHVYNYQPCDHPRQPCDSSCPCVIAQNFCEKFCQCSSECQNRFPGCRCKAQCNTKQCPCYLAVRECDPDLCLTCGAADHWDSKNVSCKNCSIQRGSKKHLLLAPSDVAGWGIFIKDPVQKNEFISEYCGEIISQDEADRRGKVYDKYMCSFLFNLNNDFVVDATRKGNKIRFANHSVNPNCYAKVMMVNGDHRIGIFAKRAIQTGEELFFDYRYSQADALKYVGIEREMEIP

[8] = target: Histone-lysine N-methyltransferase, H3 lysine-79 specific (Homo sapiens) (UniProt Q8TEK3); assay: Inhibition of […] (unknown origin) using [3H]SAM and HeLa oligo nucleosomes as substrates at 100 uM incubated for 1 hr relative to control
Sequence of Histone-lysine N-methyltransferase, H3 lysine-79 specific (Homo sapiens) (Q8TEK3 whole entry, looked up): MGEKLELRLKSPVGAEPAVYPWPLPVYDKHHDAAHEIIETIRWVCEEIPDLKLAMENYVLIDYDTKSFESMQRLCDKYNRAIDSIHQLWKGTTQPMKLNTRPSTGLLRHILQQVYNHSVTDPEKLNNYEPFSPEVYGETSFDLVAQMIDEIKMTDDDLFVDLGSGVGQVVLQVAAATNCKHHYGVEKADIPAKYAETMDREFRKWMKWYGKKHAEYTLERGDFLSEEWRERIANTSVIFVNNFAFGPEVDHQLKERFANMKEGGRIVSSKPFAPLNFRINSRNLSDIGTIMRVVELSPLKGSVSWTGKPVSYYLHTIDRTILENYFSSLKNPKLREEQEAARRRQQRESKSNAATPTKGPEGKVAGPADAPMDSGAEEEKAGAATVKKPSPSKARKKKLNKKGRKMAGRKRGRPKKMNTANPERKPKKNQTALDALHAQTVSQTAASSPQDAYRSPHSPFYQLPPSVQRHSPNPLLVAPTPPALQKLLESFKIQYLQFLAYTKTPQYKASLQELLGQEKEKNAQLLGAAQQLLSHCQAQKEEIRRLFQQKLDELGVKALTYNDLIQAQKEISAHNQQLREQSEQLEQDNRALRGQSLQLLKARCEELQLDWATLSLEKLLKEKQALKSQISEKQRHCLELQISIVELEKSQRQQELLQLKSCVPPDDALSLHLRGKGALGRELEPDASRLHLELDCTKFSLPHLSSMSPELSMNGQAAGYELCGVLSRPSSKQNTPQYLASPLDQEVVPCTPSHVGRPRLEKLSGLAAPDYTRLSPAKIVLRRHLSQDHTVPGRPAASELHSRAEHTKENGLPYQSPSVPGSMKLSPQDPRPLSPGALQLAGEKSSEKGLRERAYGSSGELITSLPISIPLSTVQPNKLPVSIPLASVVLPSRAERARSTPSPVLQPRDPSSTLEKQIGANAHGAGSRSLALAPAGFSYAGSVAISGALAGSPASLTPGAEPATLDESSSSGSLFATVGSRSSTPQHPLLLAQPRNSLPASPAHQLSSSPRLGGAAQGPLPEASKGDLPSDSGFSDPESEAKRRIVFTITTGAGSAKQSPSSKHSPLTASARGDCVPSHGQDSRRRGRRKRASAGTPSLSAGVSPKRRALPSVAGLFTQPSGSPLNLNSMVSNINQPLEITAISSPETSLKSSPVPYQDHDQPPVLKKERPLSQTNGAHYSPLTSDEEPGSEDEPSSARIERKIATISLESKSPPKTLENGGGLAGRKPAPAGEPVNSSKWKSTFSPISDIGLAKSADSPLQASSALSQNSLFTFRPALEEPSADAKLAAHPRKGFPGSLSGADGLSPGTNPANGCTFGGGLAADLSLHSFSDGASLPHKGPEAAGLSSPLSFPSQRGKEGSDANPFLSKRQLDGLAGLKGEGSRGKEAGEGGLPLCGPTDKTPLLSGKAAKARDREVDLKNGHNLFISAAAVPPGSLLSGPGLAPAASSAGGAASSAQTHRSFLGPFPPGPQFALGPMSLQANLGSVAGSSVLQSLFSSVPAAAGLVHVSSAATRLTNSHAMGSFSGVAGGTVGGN

MDA-MB-231 = assay: Antiproliferative activity against human MDA-MB-231 cells assessed as inhibition of cell growth measured after 72 hrs by MTT assay; assay type: functional, cell-based; conditions: MDA-MB-231, 72 h
[9] = target: Lysine-specific histone demethylase 1A (Homo sapiens) (UniProt O60341); assay: Inhibition of LSD1 in human MV4-11 cells assessed as increase in CD86 expression level incubated for 24 hrs by qRT-PCR analysis; assay type: cell-based; conditions: dose 0.2-1 µM
[10] = Cytotoxicity against HMEC cells assessed as residual cell viability at 1 uM incubated for 72 hrs by MTT assay relative to control; assay type: toxicity, cell-based; conditions: human, read-out: Activity
MV4-11 [11] = assay: Antiproliferative activity against human MV4-11 cells assessed as inhibition of cell growth at […] incubated for 72 to 144 hrs by trypan blue staining based analysis; assay type: functional; conditions: dose 2.5 µM, time 72-144 hrs
MV4-11 [12] = assay: Induction of cell cycle arrest in human MV4-11 cells assessed as accumulation of cells at G1 phase at 0.2 to […] incubated for 24 hrs; assay type: functional, cell-based; conditions: dose 0.2-2.5 µM
MV4-11 [13] = assay: Induction of apoptosis in human MV4-11 cells assessed as accumulation of cells at sub-G1 phase incubated for 24 hrs; assay type: functional, cell-based; conditions: dose 0.2-25 µM, DDE = dose-dependent effect
[14] = Cytotoxicity against human AHH-1 cells assessed as residual cell viability at 1 uM measured after 72 hrs by MTT assay relative to control; assay type: toxicity, cell-based; conditions: read-out: Activity
[15] = target: Lysine-specific histone demethylase 1A (Homo sapiens) (UniProt O60341); assay: Inhibition of LSD1 in human MV4-11 cells assessed as increase in H3K4me2 level at 0.2 to […] incubated for 24 hrs by Western blot analysis; assay type: cell-based; conditions: dose 0.2-2.5 µM

Compound | Kd (LSD1/CoREST complex [2]) [nM] | Ki [3] [nM] | further results
COc1cc2nc(NCCCN3CCCCC3)nc(NC3CCN(Cc4ccccc4)CC3)c2cc1OC | 68 | 3260 | Ki (LSD1/CoREST complex [1]): 170 nM
COc1cc2nc(NCCCN(C)C)nc(NC3CCN(Cc4ccccc4)C3)c2cc1OC (configuration not stated) | 251 | 8030 | 
COc1cc2nc(NCCN(C)C)nc(NC3CCN(Cc4ccccc4)CC3)c2cc1OC | 237 | 5260 | 
CCN(CC)CCCNc1nc(NC2CCN(Cc3ccccc3)CC2)c2cc(OC)c(OC)cc2n1 | 86 | 3940 | Ki (LSD1/CoREST complex [1]): 175 nM
COc1cc2nc(NCCCN(C)Cc3ccccc3)nc(NC3CCN(Cc4ccccc4)CC3)c2cc1OC | 162 | 9010 | 
COc1cc2nc(NCCCN(C)C)nc(NCCNc3cccc4ccccc34)c2cc1OC | 230 | 41500 | 
COc1cc2nc(NCCCN(C)C)nc(NC3CCN(CCc4ccccc4)CC3)c2cc1OC | 147 | 3130 | 
COc1cc2nc(NCCCN3CCOCC3)nc(NC3CCN(Cc4ccccc4)CC3)c2cc1OC | 369 | 22600 | 
Nc1ncnc2c1ncn2[C@@H]1O[C@H](CSCC[C@H](N)C(=O)O)[C@@H](O)[C@H]1O |  |  | inhibition [7]: 84.2%; inhibition [8]: 100%
COc1cc2nc(NCCCCN(C)C)nc(NC3CCN(Cc4ccccc4)CC3)c2cc1OC | 112 | 4240 | 
COc1cc2nc(NCCCN(C)C)nc(N(C)C3CCN(Cc4ccccc4)CC3)c2cc1OC | 356 | > 100000 | Ki (LSD1/CoREST complex [1]): 569 nM; IC50 (THP-1 [4]): 430 nM; IC50 (THP-1 [5]): 670 nM; IC50 (THP-1 [6]): 300 nM; IC50 (MDA-MB-231): 2380 nM
COc1cc2nc(NCCCN(C)C)nc(NC3CCNCC3)c2cc1OC | 1560 | 4830 | 
COc1cc2nc(NCCCN(C)C)nc(NC3CCN(Cc4ccc(-c5ccccc5)cc4)CC3)c2cc1OC | 81 | 1180 | inhibition [9]: Active; viability at 72 h, 1 µM [10]: 88.1%; Ki (LSD1/CoREST complex [1]): 146 nM; inhibition (MV4-11 [11]): Active; Activity (MV4-11 [12]): Active; IC50 (THP-1 [4]): 120 nM; IC50 (THP-1 [5]): 170 nM; Activity (MV4-11 [13]): Dde; viability at 72 h, 1 µM [14]: 79.1%; inhibition [15]: Active; IC50 (THP-1 [6]): 87 nM; IC50 (MDA-MB-231): 290 nM
COc1cc2nc(NCCCN3CCCC3)nc(NC3CCN(Cc4ccccc4)CC3)c2cc1OC | 82 | 4010 | Ki (LSD1/CoREST complex [1]): 183 nM

Continued, in another order:

Kd (LSD1/CoREST complex [2]) [nM] | Ki [3] [nM] | Compound | further results
1490 | 4170 | COc1cc2nc(NCCCN(C)C)nc(NC3CCN(C)CC3)c2cc1OC | 
127 | 2790 | COc1cc2nc(NCCCCCN(C)C)nc(NC3CCN(Cc4ccccc4)CC3)c2cc1OC | 
82 | 46900 | COc1cc2nc(NCCCN(C)C)nc(NC3CCN(C(=O)OC(C)(C)C)CC3)c2cc1OC | Ki (LSD1/CoREST complex [1]): 205 nM; IC50 (THP-1 [4]): 710 nM; IC50 (THP-1 [5]): 870 nM; IC50 (THP-1 [6]): 550 nM
84 | 3100 | COc1cc2nc(NCCCN(C)C)nc(NC3CCN(Cc4cccc5ccccc45)CC3)c2cc1OC | Ki (LSD1/CoREST complex [1]): 212 nM
115 | 22800 | COc1cc2nc(NCCCN(C)C)nc(NCC3CCN(Cc4ccccc4)CC3)c2cc1OC | 
1300 | 5820 | COc1cc2nc(N(C)CCCN(C)C)nc(NC3CCN(Cc4ccccc4)CC3)c2cc1OC | 
228 | 48300 | COc1cc2nc(NCCCN(C)C)nc(NCCCNc3ccccc3)c2cc1OC | 
82 | 6330 | COc1cc2nc(NC3CCN(C)CC3)nc(NC3CCN(Cc4ccccc4)CC3)c2cc1OC | 
2850 | > 100000 | COc1cc2nc(NCCCN(C)C)nc(OC3CCN(Cc4ccccc4)CC3)c2cc1OC | 
975 | 32900 | COc1cc2nc(NCCCN(C)C)nc(NC3CCN(C(=O)c4ccccc4)CC3)c2cc1OC | 
191 | 13300 | COc1cc2nc(NCCCN3CCN(C)CC3)nc(NC3CCN(Cc4ccccc4)CC3)c2cc1OC | 
127 | 20200 | COc1cc2c(NCCNc3cccc4ccccc34)nc(NCCCN(C)C)nc2cc1OCc1ccccc1 | 
